Experimental data reported in patent US20200290950A1, “ALKAMIDE COMPOUNDS AND USES THEREOF” (NORTH CAROLINA STATE UNIVERSITY, priority 2017, published 2020).

Columns and labels:
[1] = tested on: bone marrow derived mast cells (BMMCs); assay: β-hexosaminidase degranulation assay, BMMCs; assay type: cell-based; details: Mus musculus, BMMC, A23187-stimulated BMMCs, 1 hr, read-out: maximum inhibition of release of β-hex
Method: FIGS. 1A-1F. A15 inhibits BMMC and RBL-2H3 cell degranulation. The structure of alkamide A15 is shown with different functional groups and carbons in the fatty acid chain labeled (FIG. 1A). BMMCs were plated and stimulated 4 hrs later with 1 μM A23187 and the indicated concentrations of A15 or vehicle only. The percent degranulation was measured after 1 hr (FIG. 1B). RBL-2H3 cells were treated with A23187 and the percent degranulation was determined 1 hr later (FIG. 1C) or every 10 min over a 1 hr time course (FIG. 1D). RBL-2H3 cells were plated and incubated for 4 hrs before the media was aspirated and replaced with media containing 1 μg/mL IgE anti-DNP. Cells were incubated overnight and washed prior to stimulation. The percent degranulation from RBL-2H3 cells was calculated after stimulation with 50 ng/mL DNP-HSA in combination with the indicated concentrations of A15 or vehicle only after 1 hr (FIG. 1E). RBL-2H3 cells were stimulated for 1 hr in Tyrode's buffer before supernatants were collected and levels of histamine were measured using a competitive inhibition EIA kit (FIG. 1F). […]
RBL-2H3 cell and BMMC degranulation was measured using a β-hexosaminidase (β-hex) activity assay. […]

[2] = tested on: RBL-2H3 cells; assay: TNF-α production, ELISA, 8 hrs (Example 1); assay type: cell-based, rat; details: 1 μM A23187, all doses tested
Method: (§1) FIGS. 6A-6B. A15 inhibits de novo production of TNF-α and PGE2 from RBL-2H3 cells. RBL-2H3 cells were plated and incubated overnight prior to stimulation. Cells were stimulated with 1 μM A23187 in combination with the indicated doses of A15. Supernatants were collected 8 hrs later and TNF-α (FIG. 6A) or PGE2 (FIG. 6B) levels were measured using ELISA kits. Data shown are the means±SEM from 3 independent experiments. Statistical analysis was performed using a one-way ANOVA with Dunnett's post-hoc test, *p<0.05, **p<0.01, ***p<0.001.
(§2) Bone marrow cells were isolated from the femurs of 6-8 week old C57BL/6 mice and cultured in RPMI-1640 containing 10% heat-inactivated FBS, non-essential amino acids, HEPES buffer, sodium pyruvate, 100 U/mL penicillin, 100 μg/mL streptomycin, 5 ng/mL mIL-3, and 5 ng/mL mSCF for 4-6 weeks until mature, bone marrow-derived mast cells (BMMCs) were obtained, as described previously (Kuehn et al., 2010). Differentiation into >98% mast cells was confirmed through toluidine blue staining (1%, pH 1). RBL-2H3, RAW 264.7, and Jurkat cells were obtained from the American Type Culture Collection (Manassas, Va.). […] Optical density was determined using a Synergy HT microplate reader (BioTek Instruments, Inc, Winooski, Vt.). […]

[3] = tested on: RBL-2H3 cells; assay: PGE2 production, EIA, 8 hrs; assay type: cell-based, rat; details: 1 μM A23187, only at 100 μM
Method: as §1, §2

[4] = TDI-induced scratching bouts (itch); assay type: in vivo, mouse
Source text: Several different model systems were utilized for these experiments. In one model, dorsal root ganglia were obtained from mice and the neurons cultured in vitro. The neurons were then stimulated in the presence/absence of A15 and YM8-85 and the calcium responses monitored by fluorescence microscopy. In the second model, the alkamides were applied to mouse skin in mineral oil. The reactions of these mice to heat, cold, and tactile stimulation was then compared with mice that had not received treatment with A15. In a third model, mice were sensitized to the chemical compound toluene-2,4-diisocyanate (TDI). TDI is an industrial chemical which causes hypersensitive skin lesions and itching in exposed humans and animals. The physiological response to TDI is complex involving type 2 T lymphocytes, cytokines, mast cells, and neurons. Alkamides were applied to sensitized animals and then ear swelling and bouts of scratching were monitored.
The effects of A15 on TDI-induced itch. The itch response was also monitored in mice sensitized and treated with TDI. Treated mice were video recorded and the number of scratching bouts quantified by an observer.

For `CCCCCCC/C=C/C=C/C(=O)NCC(C)C` [A15, (2E,4E)-N-Isobutyldodeca-2,4-dienamide], the inhibition at 100 µM [1] was 83.5%, the “production of TNF-α” value [2] was “significant, dose dependent inhibition” and the “production of PGE2” value [3] was “weakly inhibited”. The “scratching bouts in TDI treated mice” value ([4]; higher dose 1.0%) was “strong significant inhibition of scratching” and the “scratching bouts in TDI treated mice” value ([4]; lower dose 0.1%) was “strong significant inhibition of scratching”.
